One test has as its target T1, Insulin-degrading enzyme (Homo sapiens, UniProt P14735).
T1 sequence (P14735 whole entry): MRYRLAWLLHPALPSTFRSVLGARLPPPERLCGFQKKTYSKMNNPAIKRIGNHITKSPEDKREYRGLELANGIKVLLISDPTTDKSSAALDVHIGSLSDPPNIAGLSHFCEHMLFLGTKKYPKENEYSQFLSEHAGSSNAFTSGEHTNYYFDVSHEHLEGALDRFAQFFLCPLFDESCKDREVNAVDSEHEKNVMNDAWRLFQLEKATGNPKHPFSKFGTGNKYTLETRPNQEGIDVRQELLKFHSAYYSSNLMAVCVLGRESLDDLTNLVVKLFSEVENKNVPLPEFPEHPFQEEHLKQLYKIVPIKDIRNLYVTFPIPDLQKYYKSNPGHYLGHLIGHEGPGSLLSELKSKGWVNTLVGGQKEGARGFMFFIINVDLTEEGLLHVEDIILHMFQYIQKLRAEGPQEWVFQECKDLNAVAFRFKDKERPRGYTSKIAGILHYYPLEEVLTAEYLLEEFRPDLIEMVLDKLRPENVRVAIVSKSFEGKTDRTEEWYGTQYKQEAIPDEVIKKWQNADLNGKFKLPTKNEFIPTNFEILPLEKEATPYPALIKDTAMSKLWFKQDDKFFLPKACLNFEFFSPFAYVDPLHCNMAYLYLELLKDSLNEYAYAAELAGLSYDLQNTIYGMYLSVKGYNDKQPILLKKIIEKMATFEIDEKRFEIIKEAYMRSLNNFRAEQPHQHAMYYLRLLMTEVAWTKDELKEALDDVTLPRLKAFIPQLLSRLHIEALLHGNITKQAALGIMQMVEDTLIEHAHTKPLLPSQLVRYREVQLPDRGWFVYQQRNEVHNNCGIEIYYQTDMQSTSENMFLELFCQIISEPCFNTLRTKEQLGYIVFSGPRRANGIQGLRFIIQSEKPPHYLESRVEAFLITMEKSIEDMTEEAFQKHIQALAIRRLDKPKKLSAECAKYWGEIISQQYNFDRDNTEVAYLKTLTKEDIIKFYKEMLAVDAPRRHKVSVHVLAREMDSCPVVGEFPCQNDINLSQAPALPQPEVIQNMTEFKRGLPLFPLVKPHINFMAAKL
As to the kind of experiment: Dose Response: Fluorescence polarization-based cell-based high throughput dose response assay for inhibitors of insulin-degrading enzyme (IDE). [Related pubchem assays: 434962 (Primary screen (IDE inhibitors in singlicate)), 449730 (Counterscreen (Cytotoxicity in triplicate)), 435028 (Confirmation (IDE inhibitors in triplicate)), 434984 (Summary …. It counts as functional. In general terms: Fluorescence polarisation rises when a labelled molecule tumbles more slowly, as on binding a larger partner.

Test [1] is described as follows: mitochondrial function rescue without frataxin homolog – Friedreich's ataxia, plus single-dose screen, dose response (AID 1465).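 Also: yeast depleted of Yfh1p frataxin homolog grown on glycerol needing respiration; WST-1 tetrazolium dye reduction as measure of cellular dehydrogenase metabolic activity.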 It counts as functional.
Test [2] in a line: Counterscreen for IDE inhibitors: Luminescence-based cell-based high throughput dose response assay to identify compounds that are cytotoxic to HEK cells. [Related pubchem assays: 434962 (Primary screen (IDE inhibitors in singlicate)), 449730 (Counterscreen (Cytotoxicity in triplicate)), 435028 (Confirmation (IDE inhibitors in triplicate)) …. Format: functional. To be noted: HEK293.

Another test concerns the target Troponin, cardiac muscle (Homo sapiens, UniProt P19429+P45379+P63316). The test is described as follows: Fluorescence-based biochemical high throughput dose response assay for activators of the calcium sensitivity of cardiac Regulated Thin Filaments (RTF). [Related pubchem assays (depositor defined):AID493008, AID493018, AID504382, AID504383]. It counts as protein-complex assay.

The target in the next test is Exodeoxyribonuclease V (Escherichia coli (strain K12), UniProt P04993+P07648+P08394). The test is described as follows: RecBCD inhibition via phage-restricted bacterial growth – absorbance, V66 E. coli, mutant T4 phage, counter-screen for AddAB inhibitor project, dose response (AID 492957). It counts as functional, cell-based, Escherichia coli str. K-12 substr. MG1655. A general note: A counterscreen serves to expose hits that act by an unwanted route or on another target.

The nature of test [3]: cells. Format: functional, cell-based.
Test [4] can be described thus: cells. Format: functional, cell-based. The source holds these as a separate data set.
Test [5] in a line: Counterscreen for AddAB inhibitors: absorbance-based bacterial cell-based high throughput dose response assay for inhibitors of bacterial viability. [Related pubchem assays (depositor defined):AID435030, AID449728, AID449731, AID488942, AID488955, AID488956]. It counts as functional.
Test [6] can be described thus: fluconazole-exposed Candida albicans growth modulators – fluorescence, retest, confirmation (AID 2467). It counts as functional, cell-based.
The test system of another test is INS1. The test is described as follows: INS-1E survival protection against cytokine death – cell-based, luminescence, retest, dose response (AID 449756).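 Also: cell death triggered by IL-1 beta plus TNF-alpha plus IFN-gamma mixture; protective hits raise ATP signal compared with cytokine alone wells.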 Format: functional. To be noted: Rattus norvegicus.
The target of the next test is Galanin receptor type 3 (Homo sapiens, UniProt O60755). The test is described as follows: Fluorescence-based cell-based primary high throughput dose response assay to identify antagonists of the Galanin Receptor 3 (GalR3). Format: functional.
A short description of test [7]: NIH-3T3 fibroblast cytotoxicity, dose response, cytotoxicity control, cell-based, fluorescence, Alamar Blue, secondary assay (AID 2327).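 Also: NIH-3T3 mouse fibroblasts cultured with fluconazole at 8 µg/mL.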 Format: functional. For orientation: Alamar Blue is a resazurin reagent that responds to reducing activity.
The nature of test [8]: cells. Format: functional, cell-based. To be noted: HEK-CNG.
Test [9] has as its target Lysine-specific demethylase 4C (Homo sapiens, UniProt Q9H3R0). As to the kind of experiment: inhibition of JMJD2C H3K9me3 demethylation – biochemical, DELFIA europium, cherry-picked samples, dose response (AID 488835). Format: functional.
Test [10] deals with T2, Apoptotic protease-activating factor 1 (Homo sapiens, UniProt O14727).
T2 sequence (O14727 whole entry): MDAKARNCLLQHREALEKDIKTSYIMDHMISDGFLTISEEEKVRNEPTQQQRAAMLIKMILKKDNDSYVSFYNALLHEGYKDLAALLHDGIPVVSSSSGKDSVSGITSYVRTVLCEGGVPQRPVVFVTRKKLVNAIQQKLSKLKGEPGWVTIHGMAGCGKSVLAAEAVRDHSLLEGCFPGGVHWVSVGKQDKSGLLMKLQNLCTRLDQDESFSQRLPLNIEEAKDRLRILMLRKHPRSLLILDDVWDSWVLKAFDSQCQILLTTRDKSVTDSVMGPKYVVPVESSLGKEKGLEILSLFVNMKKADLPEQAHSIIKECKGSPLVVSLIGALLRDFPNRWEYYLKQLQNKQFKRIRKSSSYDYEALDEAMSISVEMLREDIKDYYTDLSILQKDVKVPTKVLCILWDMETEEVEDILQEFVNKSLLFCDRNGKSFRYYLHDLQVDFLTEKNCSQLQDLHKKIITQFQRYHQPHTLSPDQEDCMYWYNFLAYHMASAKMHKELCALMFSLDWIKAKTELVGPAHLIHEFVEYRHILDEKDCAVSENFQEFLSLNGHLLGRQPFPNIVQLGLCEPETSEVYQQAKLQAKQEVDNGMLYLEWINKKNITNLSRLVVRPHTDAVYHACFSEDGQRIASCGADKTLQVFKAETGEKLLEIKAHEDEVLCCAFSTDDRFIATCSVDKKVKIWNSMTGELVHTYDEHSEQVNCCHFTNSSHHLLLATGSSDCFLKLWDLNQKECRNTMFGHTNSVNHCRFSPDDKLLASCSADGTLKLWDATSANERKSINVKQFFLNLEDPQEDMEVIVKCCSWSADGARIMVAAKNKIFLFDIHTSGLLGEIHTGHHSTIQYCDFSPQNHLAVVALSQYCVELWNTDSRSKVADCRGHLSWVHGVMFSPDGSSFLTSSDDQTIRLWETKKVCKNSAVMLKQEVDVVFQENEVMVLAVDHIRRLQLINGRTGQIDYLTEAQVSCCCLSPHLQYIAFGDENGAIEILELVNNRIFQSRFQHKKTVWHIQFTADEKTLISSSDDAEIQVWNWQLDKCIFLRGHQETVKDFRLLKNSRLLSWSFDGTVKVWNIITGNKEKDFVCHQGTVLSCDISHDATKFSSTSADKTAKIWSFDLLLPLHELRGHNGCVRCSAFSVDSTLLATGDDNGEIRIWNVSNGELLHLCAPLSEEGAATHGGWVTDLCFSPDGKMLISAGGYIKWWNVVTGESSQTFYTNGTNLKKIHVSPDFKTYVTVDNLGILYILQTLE
It counts as functional.

Another test concerns the target T3, Protein RecA (Mycobacterium tuberculosis, UniProt P9WHJ3).
T3 sequence (P9WHJ3 whole entry): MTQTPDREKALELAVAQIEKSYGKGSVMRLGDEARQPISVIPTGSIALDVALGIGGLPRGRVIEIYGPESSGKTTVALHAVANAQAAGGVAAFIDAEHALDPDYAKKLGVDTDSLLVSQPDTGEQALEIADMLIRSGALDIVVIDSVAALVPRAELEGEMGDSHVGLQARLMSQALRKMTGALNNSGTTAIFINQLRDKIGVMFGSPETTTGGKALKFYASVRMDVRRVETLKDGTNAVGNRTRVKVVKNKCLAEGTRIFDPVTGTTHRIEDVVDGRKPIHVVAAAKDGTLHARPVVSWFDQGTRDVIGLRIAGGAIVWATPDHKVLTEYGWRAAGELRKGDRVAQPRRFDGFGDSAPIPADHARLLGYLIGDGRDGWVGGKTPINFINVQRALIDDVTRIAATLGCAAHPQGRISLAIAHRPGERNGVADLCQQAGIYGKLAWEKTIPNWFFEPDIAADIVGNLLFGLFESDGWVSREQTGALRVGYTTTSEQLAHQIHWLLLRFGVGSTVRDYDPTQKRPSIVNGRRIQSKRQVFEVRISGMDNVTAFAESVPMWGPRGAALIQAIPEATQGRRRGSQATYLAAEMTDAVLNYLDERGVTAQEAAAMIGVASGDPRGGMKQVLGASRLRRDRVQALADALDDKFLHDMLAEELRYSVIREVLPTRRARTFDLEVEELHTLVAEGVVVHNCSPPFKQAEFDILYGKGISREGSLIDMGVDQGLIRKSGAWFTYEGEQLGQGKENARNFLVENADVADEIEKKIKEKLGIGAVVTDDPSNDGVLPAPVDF
As to the kind of experiment: Fluorescence Cell-Free Homogeneous Dose Retest to Identify Inhibitors of RecA-Intein Splicing Activity. [Related pubchem assays (depositor defined):AID2097, AID2223, AID489010, AID492950]. It counts as functional.

Test [11] has as its target T4, Replicative DNA helicase DnaB (Mycobacterium tuberculosis, UniProt P9WMR3).
T4 sequence (P9WMR3 whole entry): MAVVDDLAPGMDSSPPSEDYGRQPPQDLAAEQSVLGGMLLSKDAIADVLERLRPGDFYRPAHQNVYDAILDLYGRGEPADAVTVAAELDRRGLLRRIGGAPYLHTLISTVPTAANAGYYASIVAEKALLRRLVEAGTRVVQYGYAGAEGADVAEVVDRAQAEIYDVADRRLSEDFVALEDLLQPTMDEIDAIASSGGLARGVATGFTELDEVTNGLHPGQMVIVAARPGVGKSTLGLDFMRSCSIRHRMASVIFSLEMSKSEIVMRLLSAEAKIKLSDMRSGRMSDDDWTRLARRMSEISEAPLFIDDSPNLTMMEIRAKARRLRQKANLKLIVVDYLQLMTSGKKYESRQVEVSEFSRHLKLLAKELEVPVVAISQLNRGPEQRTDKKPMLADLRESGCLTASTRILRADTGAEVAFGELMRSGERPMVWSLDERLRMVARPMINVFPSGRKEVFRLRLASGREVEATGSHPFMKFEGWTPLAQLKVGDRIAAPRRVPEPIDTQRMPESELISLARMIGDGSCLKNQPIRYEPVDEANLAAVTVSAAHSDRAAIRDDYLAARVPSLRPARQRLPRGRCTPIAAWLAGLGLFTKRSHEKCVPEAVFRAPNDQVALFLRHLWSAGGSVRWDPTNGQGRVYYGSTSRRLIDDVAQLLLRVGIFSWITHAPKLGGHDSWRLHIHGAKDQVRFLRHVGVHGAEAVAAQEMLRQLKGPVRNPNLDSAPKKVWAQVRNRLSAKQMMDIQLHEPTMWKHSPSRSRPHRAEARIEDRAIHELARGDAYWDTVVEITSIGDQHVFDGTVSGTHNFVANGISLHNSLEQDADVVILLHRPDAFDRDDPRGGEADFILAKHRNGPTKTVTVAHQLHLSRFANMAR
As to the kind of experiment: DnaB intein splicing inhibitors, dose response, biochemical, cell-free fluorescence (AID 449749). Format: functional.

A short description of test [12]: A cytotoxicity screen of small molecule inhibitors of the PhoP region in Salmonella typhi identified in the primary screen. [Related pubchem assays: 1850, 1864, 1985 ]. It counts as functional.

The source made the active and inactive calls. A value given as a limit tells only on which side of the number the result lay.

Turning to `N#C/C(=C\c1ccc(N2CCOCC2)o1)C(=O)NC1CCCCC1`, the IC50 at Insulin-degrading enzyme is 8.05 µM (active); in test [2] it was 31.8 µM (not active). In addition, the EC50 in test [1] was > 100 µM (active); on Troponin, cardiac muscle, 6.89 µM (active).

For the molecule `Nc1nonc1-n1nnc(C(=O)N/N=C/c2cc(Br)ccc2O)c1CSC1=NCCS1`, the values for the IC50 (at Exodeoxyribonuclease V; in test [5]; on Galanin receptor type 3) were > 119 µM (inactive), > 119 µM (inactive) and 1.24 µM (active), respectively. The EC50 in “cells [3]” is > 350 µM (not active); in “cells [4]”, 12.6 µM (active); in test [6], 0.299 µM (active); in [7], 5.49 µM (active); in the test “cells [8]”, > 29.9 µM (inactive). Also, the AC50 with INS1 was 0.567 µM (active).

`Cc1ccc2c(c1)N(CC(=O)NCC1CCCO1)C(=O)C(C(C)C)O2` (stereo unspecified): the AC50 in test [9] is 11.5 µM (active).

`CCCCNC1=CC(=O)C(=O)c2ccccc21`: the IC50 on Exodeoxyribonuclease V was > 119 µM (inactive); in test [10], 6.49 µM (active); in [5], > 39.5 µM (inactive). Moreover, the EC50 at Protein RecA is 0.669 µM (active); in test [12] it was > 50 µM (active). Further, the AC50 in the test with INS1 was 1.78 µM (active); in test [11] it was 0.575 µM (active).

As a reminder, the IC50 is the midpoint of a concentration-inhibition curve. Broadly, the EC50 is the midpoint of the concentration-response curve. One may read the AC50 as the concentration giving half of the maximal activity seen.

(Values after ChEMBL document CHEMBL1201862, “PubChem BioAssay data set” (2004).)
